Reference: ChEMBL document CHEMBL4673259, “Discovery of isoquinolinone and naphthyridinone-based inhibitors of poly(ADP-ribose) polymerase-1 (PARP1) as anticancer agents: Structure activity relationship and preclinical characterization” (Bioorg Med Chem, 2020)

Legend:
[1] = target: Poly [ADP-ribose] polymerase 1 (Homo sapiens, UniProt P09874); assay: Inhibition of N-terminal GST-tagged human full length PARP1 (2 to 1041 residues) expressed in baculovirus infected Sf9 cells using histone mixture (H2A and H2B) and biotinylated NAD+ as substrate in presence of activated DNA incubated for 60 mins by chemiluminescence assay
[2] = target: Poly [ADP-ribose] polymerase 2 (Homo sapiens, UniProt Q9UGN5); assay: Inhibition of N-terminal GST-tagged human PARP2 (2 to 583 residues) expressed in baculovirus infected Sf9 cells using histone mixture (H2A and H2B) and biotinylated NAD+ as substrate in presence of activated DNA incubated for 60 mins by chemiluminescence assay
MDA-MB-436 [3] = assay: Cytotoxicity against human MDA-MB-436 cells assessed as inhibition of cell viability incubated for 4 days by CellTiterGlo luminescence assay; settings: MDA-MB-436, 96 h
MDA-MB-436 [4] = assay: Cytotoxicity against human MDA-MB-436 cells assessed as inhibition of cell viability incubated for 14 days with three intermittent intervals by CellTiterGlo luminescence assay; settings: MDA-MB-436, 336 h
[5] = Tmax in BALB/c mouse at 1 mg/kg, iv measured up to 24 hrs by LC-MS/MS analysis; assay type: ADME, organism-based; settings: in vivo
[6] = Cmax in BALB/c mouse at 1 mg/kg, iv measured up to 24 hrs by LC-MS/MS analysis; assay type: ADME, organism-based; parameters: route intravenous, dose 1 mg/kg, time <=24; settings: in vivo
[7] = Cmax in BALB/c mouse at 10 mg/kg, po measured up to 24 hrs by LC-MS/MS analysis; assay type: ADME, organism-based; parameters: route oral, dose 10 mg/kg, time <=24; settings: in vivo
[8] = AUClast in BALB/c mouse at 10 mg/kg, po measured up to 24 hrs by LC-MS/MS analysis; assay type: ADME, organism-based; parameters: route oral, dose 10 mg/kg, time <=24; settings: in vivo
[9] = Half life in BALB/c mouse at 1 mg/kg, iv measured up to 24 hrs by LC-MS/MS analysis; assay type: ADME, organism-based; settings: in vivo
[10] = Volume of distribution at steady state in BALB/c mouse at 1 mg/kg, iv measured up to 24 hrs by LC-MS/MS analysis; assay type: ADME, organism-based; settings: in vivo, read-out: Vdss
CYP1A2 = CYP1A2 (Homo sapiens, UniProt P05177); assay: Inhibition of CYP1A2 (unknown origin) at 10 uM relative to control; assay type: ADME
CYP2B6 = CYP2B6 (Homo sapiens, UniProt P20813); assay: Inhibition of CYP2B6 (unknown origin) at 10 uM relative to control; assay type: ADME
CYP2C9 = CYP2C9 (Homo sapiens, UniProt P11712); assay: Inhibition of CYP2C9 (unknown origin) at 10 uM relative to control; assay type: ADME
CYP2C19 = CYP2C19 (Homo sapiens, UniProt P33261); assay: Inhibition of CYP2C19 (unknown origin) at 10 uM relative to control; assay type: ADME
CYP3A4 = CYP3A4 (Homo sapiens, UniProt P08684); assay: Inhibition of CYP3A4 (unknown origin) at 10 uM relative to control; assay type: ADME
[11] = Metabolic stability of the compound in rat plasma measured up to 4 hrs; assay type: ADME, cell-free; settings: read-out: Stabilty
[12] = Metabolic stability of the compound in dog plasma measured up to 4 hrs; assay type: ADME, cell-free, Canis lupus familiaris; settings: read-out: Stabilty
[13] = Metabolic stability of the compound in human plasma measured up to 4 hrs; assay type: ADME, cell-free; settings: read-out: Stabilty
[14] = Protein binding in mouse plasma; assay type: ADME, cell-free; settings: read-out: PPB (converted)
[15] = Protein binding in rat plasma; assay type: ADME, cell-free; settings: read-out: PPB (converted)
[16] = Protein binding in dog plasma; assay type: ADME, cell-free, Canis lupus familiaris; settings: read-out: PPB (converted)
HEK293 = assay: Cytotoxicity against HEK293 cells at 1000 nM relative to control; assay type: cell-based; settings: human, hek293, 1 µM
MDA-MB-436 [17] = assay: Anticancer activity against human MDA-MB-436 cells harboring BRCA mutant xenografted in po dosed SCID/nude mouse assessed as tumor growth regression administered bid and measured up to 5 weeks post-drug administration; assay type: functional, organism-based; settings: dose 0.015-0.15 mg/kg, time weeks <=5
MDA-MB-436 [18] = assay: Anticancer activity against human MDA-MB-436 cells harboring BRCA mutant xenografted in SCID/nude mouse assessed as tumor growth regression at 0.015 mg/kg, po bid and measured up to 5 weeks post-drug administration; assay type: functional; settings: MDA-MB-436, po, 840 h, time weeks <=5
MDA-MB-436 [19] = assay: Anticancer activity against human MDA-MB-436 cells harboring BRCA mutant xenografted in SCID/nude mouse assessed as tumor growth regression at 0.15 mg/kg, po bid and measured up to 5 weeks post-drug administration; assay type: functional; settings: MDA-MB-436, po, 840 h, time weeks <=5
MDA-MB-436 [20] = assay: Potentiation of anticancer activity against human MDA-MB-436 cells harboring BRCA mutant xenografted in SCID/nude mouse assessed as tumor growth inhibition at 0.15 mg/kg, po bid for 12 days co-administered with TMZ measured up to 9 weeks post drug administration; assay type: functional; settings: MDA-MB-436, po, 288 h, time 12 day
CAPAN-1 [21] = assay: Potentiation of anticancer activity against human CAPAN-1 cells harboring BRCA mutant xenografted in SCID/nude mouse assessed as tumor growth inhibition at 0.15 mg/kg, po bid for 12 days co-administered with TMZ measured up to 9 weeks post-drug administration; assay type: functional; settings: CAPAN-1, po, 288 h, time 12 day
SK-ES1 = assay: Potentiation of anticancer activity against human SK-ES-1 cells harboring EWSF1 translocation xenografted in SCID/nude mouse assessed as tumor growth inhibition at 0.15 mg/kg, po bid for 12 days co-administered with TMZ measured up to 9 weeks post drug administration; assay type: functional; settings: 288 h, time 12 day
CAPAN-1 [22] = assay: Antitumor activity against human CAPAN1 cells xenografted in SCID/nude mouse assessed as tumor growth inhibition at 0.1 mg/kg, po bid measured up to 5 weeks post drug administration; assay type: functional; settings: CAPAN-1, po, 840 h, time weeks <=5
[23] = target: Protein mono-ADP-ribosyltransferase PARP3 (Homo sapiens, UniProt Q9Y6F1); assay: Inhibition of PARP3 (unknown origin)
[24] = target: Poly [ADP-ribose] polymerase tankyrase-1 (Homo sapiens, UniProt O95271); assay: Inhibition of TNKS1 (unknown origin)
[25] = target: Mitogen-activated protein kinase kinase kinase 14 (Homo sapiens) (UniProt Q99558); assay: Inhibition of NIK (unknown origin) at 10 uM
[26] = Toxicity in rat assessed as NOAEL for respiratory effect; settings: in vivo
[27] = Toxicity against SCID/nude mouse xenografted with human CAPAN-1 cells harboring BRCA mutant assessed as body weight loss at 0.15 mg/kg, po bid for 12 days co-administered with 35 mg/kg, po TMZ; assay type: organism-based; settings: in vivo, 288 h, time 12 day
[28] = Toxicity against SCID/nude mouse xenografted with human SK-ES-1 cells harboring EWSF1 translocation assessed as body weight loss at 0.15 mg/kg, po bid for 12 days co-administered with 35 mg/kg, po TMZ; assay type: organism-based; settings: in vivo, 288 h, time 12 day
MDA-MB-436 [29] = assay: Potentiation of anticancer activity against human MDA-MB-436 cells harboring BRCA mutant xenografted in SCID/nude mouse assessed as tumor growth inhibition at 0.15 mg/kg, po bid for 12 days co-administered with […] measured up to 9 weeks post drug administration; assay type: functional; settings: MDA-MB-436, po, time weeks <=9

Sequence of Poly [ADP-ribose] polymerase 1 (P09874 whole entry, the tested form may be a part): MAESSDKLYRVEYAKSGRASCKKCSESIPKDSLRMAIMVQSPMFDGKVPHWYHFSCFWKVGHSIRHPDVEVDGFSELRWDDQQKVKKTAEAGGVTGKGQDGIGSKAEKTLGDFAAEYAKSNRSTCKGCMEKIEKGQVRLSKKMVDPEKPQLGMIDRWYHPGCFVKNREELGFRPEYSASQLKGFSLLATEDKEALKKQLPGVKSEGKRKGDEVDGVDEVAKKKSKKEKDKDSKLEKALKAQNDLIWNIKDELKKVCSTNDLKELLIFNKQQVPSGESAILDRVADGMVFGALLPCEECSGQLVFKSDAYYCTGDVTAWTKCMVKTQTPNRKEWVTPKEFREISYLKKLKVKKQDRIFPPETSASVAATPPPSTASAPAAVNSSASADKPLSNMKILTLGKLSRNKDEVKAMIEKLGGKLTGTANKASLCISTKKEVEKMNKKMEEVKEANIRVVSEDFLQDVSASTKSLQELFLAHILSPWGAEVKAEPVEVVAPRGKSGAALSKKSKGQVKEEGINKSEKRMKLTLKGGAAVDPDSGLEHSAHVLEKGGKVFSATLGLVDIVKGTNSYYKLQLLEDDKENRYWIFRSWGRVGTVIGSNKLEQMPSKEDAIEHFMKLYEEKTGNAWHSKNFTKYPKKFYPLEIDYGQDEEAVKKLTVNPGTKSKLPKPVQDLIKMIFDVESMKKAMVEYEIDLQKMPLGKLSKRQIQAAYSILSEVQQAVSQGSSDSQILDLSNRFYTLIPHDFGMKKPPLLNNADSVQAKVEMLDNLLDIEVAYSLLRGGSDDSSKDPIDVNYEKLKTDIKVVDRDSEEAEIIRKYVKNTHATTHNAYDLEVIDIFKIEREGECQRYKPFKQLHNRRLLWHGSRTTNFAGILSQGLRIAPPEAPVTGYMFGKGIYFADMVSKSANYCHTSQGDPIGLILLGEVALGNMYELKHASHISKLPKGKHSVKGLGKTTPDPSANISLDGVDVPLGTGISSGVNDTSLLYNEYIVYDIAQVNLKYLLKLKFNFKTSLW
Sequence of CYP3A4 (P08684 whole entry): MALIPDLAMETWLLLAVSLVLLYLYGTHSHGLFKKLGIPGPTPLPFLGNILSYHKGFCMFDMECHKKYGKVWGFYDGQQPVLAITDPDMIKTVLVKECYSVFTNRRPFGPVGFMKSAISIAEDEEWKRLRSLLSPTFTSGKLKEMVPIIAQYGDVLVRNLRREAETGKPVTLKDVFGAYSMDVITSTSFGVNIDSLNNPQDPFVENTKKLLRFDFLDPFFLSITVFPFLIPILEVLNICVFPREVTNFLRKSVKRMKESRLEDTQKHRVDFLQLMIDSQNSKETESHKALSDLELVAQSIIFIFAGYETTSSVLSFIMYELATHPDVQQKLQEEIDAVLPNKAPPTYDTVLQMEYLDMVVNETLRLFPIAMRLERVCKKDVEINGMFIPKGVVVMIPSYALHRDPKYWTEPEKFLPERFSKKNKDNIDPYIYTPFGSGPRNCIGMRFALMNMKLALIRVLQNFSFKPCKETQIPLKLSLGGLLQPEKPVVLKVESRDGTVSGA
Sequence of CYP2B6 (P20813 whole entry): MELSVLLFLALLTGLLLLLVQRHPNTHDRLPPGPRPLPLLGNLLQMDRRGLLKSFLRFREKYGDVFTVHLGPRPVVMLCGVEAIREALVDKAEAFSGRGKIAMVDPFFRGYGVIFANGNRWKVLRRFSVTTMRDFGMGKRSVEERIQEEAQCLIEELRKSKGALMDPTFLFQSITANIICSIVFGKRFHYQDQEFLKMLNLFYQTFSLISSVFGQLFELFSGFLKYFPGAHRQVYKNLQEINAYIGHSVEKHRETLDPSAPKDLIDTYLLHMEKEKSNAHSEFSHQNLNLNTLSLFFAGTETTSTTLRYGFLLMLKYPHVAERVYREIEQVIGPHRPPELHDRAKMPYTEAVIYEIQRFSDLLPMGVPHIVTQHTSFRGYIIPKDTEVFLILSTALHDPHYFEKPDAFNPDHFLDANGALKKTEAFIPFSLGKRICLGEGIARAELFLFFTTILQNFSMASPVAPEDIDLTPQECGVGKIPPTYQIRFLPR
Sequence of CYP2C9 (P11712 whole entry): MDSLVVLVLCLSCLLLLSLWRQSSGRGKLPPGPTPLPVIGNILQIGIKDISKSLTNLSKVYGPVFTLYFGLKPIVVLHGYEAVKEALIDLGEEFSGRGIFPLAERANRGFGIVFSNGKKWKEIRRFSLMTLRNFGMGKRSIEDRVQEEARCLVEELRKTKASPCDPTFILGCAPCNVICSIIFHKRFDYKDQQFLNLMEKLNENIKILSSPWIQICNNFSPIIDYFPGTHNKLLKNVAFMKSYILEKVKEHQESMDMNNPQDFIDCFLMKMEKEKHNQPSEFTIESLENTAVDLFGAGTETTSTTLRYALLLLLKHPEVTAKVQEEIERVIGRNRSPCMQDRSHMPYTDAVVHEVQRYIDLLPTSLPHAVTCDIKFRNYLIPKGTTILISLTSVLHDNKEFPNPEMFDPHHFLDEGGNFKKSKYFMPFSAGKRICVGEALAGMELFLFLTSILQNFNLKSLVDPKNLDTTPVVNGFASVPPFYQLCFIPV
Sequence of Mitogen-activated protein kinase kinase kinase 14 (Homo sapiens) (Q99558 whole entry, looked up): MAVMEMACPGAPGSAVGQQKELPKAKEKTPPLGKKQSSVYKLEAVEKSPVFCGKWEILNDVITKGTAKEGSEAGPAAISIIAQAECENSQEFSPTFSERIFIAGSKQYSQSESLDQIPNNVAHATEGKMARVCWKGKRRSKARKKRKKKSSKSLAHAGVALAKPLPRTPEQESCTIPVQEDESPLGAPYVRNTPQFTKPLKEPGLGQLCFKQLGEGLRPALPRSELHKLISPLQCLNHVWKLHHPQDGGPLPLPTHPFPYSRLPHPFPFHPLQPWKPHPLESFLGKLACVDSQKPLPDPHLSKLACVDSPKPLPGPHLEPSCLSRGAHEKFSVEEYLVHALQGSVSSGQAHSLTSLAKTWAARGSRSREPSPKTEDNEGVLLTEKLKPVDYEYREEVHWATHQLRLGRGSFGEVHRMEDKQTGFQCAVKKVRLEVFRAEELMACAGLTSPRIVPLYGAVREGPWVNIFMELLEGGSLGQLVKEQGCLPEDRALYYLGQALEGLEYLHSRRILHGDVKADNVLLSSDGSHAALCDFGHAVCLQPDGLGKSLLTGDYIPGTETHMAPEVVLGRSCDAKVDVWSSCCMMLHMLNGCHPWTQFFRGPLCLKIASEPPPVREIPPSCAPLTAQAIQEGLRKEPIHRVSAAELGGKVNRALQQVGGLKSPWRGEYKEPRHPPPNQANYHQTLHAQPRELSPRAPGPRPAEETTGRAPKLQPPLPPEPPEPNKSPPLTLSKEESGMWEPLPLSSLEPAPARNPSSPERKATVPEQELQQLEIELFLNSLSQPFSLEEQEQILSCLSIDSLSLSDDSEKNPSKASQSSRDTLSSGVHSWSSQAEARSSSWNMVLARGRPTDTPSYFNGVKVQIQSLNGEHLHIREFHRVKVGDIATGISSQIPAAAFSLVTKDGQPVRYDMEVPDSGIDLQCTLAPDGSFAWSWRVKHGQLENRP
Sequence of Poly [ADP-ribose] polymerase tankyrase-1 (O95271 whole entry): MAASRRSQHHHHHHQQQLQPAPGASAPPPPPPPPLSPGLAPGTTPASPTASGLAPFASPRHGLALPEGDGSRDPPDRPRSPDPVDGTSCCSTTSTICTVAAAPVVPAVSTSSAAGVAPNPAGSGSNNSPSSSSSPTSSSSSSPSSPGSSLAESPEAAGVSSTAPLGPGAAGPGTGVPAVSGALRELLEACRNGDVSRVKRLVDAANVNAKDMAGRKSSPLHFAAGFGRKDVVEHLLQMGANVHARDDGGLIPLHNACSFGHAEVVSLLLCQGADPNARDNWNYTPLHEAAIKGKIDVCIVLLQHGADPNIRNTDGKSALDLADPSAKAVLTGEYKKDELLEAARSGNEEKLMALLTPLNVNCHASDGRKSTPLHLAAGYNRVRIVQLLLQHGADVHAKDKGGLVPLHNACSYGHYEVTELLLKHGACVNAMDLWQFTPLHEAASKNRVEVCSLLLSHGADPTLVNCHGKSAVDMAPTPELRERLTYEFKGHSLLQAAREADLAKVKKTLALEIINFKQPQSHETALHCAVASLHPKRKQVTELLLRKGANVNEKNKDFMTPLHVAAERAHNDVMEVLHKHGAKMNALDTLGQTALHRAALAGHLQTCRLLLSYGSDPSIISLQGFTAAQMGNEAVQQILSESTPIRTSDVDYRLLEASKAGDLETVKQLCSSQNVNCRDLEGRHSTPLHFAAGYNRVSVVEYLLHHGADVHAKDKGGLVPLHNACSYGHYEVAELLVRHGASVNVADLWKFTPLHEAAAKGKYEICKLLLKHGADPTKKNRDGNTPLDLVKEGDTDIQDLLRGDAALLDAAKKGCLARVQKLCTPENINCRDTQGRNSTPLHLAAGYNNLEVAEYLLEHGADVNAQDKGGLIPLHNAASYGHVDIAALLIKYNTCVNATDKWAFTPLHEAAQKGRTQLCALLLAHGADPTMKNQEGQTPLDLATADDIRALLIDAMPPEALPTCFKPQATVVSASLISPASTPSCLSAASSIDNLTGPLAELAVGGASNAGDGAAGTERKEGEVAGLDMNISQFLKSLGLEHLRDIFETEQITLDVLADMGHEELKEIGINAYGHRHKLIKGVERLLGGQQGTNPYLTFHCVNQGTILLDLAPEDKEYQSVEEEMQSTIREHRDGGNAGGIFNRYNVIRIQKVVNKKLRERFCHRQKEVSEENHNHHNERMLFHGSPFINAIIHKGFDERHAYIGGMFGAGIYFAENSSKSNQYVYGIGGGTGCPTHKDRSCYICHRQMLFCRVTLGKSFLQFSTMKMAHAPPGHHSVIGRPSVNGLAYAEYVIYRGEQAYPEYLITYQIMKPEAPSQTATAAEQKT

Compound: N#Cc1ccc(N2CCN([C@H]3C=C(c4cc5ncccc5c(=O)[nH]4)CC3)CC2)cc1
- IC50 [1]: 1.1 nM
- IC50 [2]: 8.1 nM
- IC50 (MDA-MB-436 [3]): 0.035 nM
- IC50 (MDA-MB-436 [4]): 0.0008 nM
- Tmax [5]: 4.8 min
- Cmax [6]: 11 µM
- Cmax [7]: 31 µM
- AUC(0-t) at 24 h [8]: 403 µM·h
- half-life [9]: 5.1 h
- Vd [10]: 0.2 L/kg
- inhibition at 10 µM (CYP1A2): ≤ 23%
- inhibition at 10 µM (CYP2B6): ≤ 23%
- inhibition at 10 µM (CYP2C9): ≤ 23%
- inhibition at 10 µM (CYP2C19): ≤ 23%
- inhibition at 10 µM (CYP3A4): ≤ 23%
- remaining at 4 h [11]: 80%
- remaining at 4 h [12]: 80%
- remaining at 4 h [13]: 80%
- fraction unbound [14]: 0.074
- fraction unbound [15]: 0.056
- fraction unbound [16]: 0.125
- Activity (HEK293): 72%
- Activity (MDA-MB-436 [17]): Dose-dependent effect
- inhibition in vivo at 0.015 mg/kg (MDA-MB-436 [18]): 50%
- inhibition in vivo at 0.15 mg/kg (MDA-MB-436 [19]): 79%
- inhibition in vivo at 0.15 mg/kg (MDA-MB-436 [20]): > 90%
- inhibition in vivo at 0.15 mg/kg (CAPAN-1 [21]): 88%
- inhibition in vivo at 0.15 mg/kg (SK-ES1): 89%
- inhibition in vivo at 0.1 mg/kg (CAPAN-1 [22]): 46.1%
- IC50 [23]: 8000 nM
- IC50 [24]: 769 nM
- inhibition [25]: 65%
- NOAEL [26]: 30 mg/kg/day
- Activity [27]: Non-Toxic
- Activity [28]: Non-Toxic
- inhibition in vivo at 0.15 mg/kg (MDA-MB-436 [29]): > 90%
